{"source": "patent US10519152B2", "about": "“Compounds and their use in treating cancer” (AstraZeneca AB, priority 2017, dated 2019)", "molecular_target": "T1, Estrogen Receptor (ERα) in MCF-7 human ductal carcinoma breast cell line (Homo sapiens, UniProt P03372)", "T1 construct": "endogenous in cells; host or cells: MCF-7", "T1 sequence (P03372 1-595)": "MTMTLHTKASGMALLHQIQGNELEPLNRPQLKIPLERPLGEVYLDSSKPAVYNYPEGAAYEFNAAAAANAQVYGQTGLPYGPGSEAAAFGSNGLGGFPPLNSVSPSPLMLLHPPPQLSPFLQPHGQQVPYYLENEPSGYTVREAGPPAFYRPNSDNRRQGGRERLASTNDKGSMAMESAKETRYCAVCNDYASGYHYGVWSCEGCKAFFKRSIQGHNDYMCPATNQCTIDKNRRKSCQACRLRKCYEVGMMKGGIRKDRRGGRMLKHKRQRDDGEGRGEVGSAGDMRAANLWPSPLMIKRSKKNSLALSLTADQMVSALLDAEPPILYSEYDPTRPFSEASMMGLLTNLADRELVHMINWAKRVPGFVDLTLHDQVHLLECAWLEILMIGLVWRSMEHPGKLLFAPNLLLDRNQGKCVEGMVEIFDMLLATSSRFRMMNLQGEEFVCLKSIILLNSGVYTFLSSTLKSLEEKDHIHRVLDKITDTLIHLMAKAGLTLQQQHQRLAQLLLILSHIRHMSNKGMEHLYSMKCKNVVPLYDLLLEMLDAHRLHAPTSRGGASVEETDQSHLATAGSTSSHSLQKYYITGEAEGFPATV", "test": "MCF-7 ER degradation assay (cell based immuno-fluorescence)", "conditions": "MCF-7 cells; for ER degradation ≥ 90% at 0.3 μM: ER degradation by fulvestrant at 0.3 μM is defined as 100%; for DC50: 18-22 hours incubation, 50% reduction of ERα expression, single experiment or average of two or more, read-out: MCF-7 ER degradation IC50", "outline": "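MCF-7 human ductal carcinoma breast cells were seeded at 3.75×10^4 cells per mL (40 μL per well) in 384 well plates with phenol red free DMEM containing 2 mM L-Glutamine and 5% (v/v) Charcoal/Dextran treated foetal calf serum. After overnight culture, compounds were acoustically dispensed, incubated 18-22 hours, then cells were formaldehyde-fixed and immunostained for ERα.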", "data": [{"smiles": "Cc1ncsc1-c1ccc(CNC(=O)[C@@H]2C[C@@H](O)CN2C(=O)[C@@H](NC(=O)COCC(F)(F)COCCCOc2cc(F)c([C@@H]3c4[nH]c5ccccc5c4C[C@@H](C)N3CC(C)(C)F)c(F)c2)C(C)(C)C)cc1", "note": "[Example 125, (2S,4R)-1-((S)-2-(2-(3-(3-(3,5-Difluoro-4-((1R,3R)-2-(2-fluoro-2-methylpropyl)-3-methyl-2,3,4,9-tetrahydro-1H-pyrido[3,4-b]indol-1-yl)phenoxy)propoxy)-2,2-difluoropropoxy)acetamido)-3,3-dimethylbutanoyl)-4-hydroxy-N-(4-(4-methylthiazol-5-yl)benzyl)pyrrolidine-2-carboxamide]", "values": [{"measurement": "ER degradation ≥ 90% at 0.3 μM", "value": "••"}, {"measurement": "DC50", "value": 0.7, "unit": "nM"}]}, {"smiles": "Cc1ncsc1-c1ccc([C@H](C)NC(=O)[C@@H]2C[C@@H](O)CN2C(=O)[C@@H](NC(=O)C(F)(F)OCCOCCCCOc2cc(F)c([C@@H]3c4[nH]c5ccccc5c4C[C@@H](C)N3CC(C)(C)F)c(F)c2)C(C)(C)C)cc1", "note": "[Example 122, (2S,4R)-1-((S)-2-(2-(2-(4-(3,5-Difluoro-4-((1R,3R)-2-(2-fluoro-2-methylpropyl)-3-methyl-2,3,4,9-tetrahydro-1H-pyrido[3,4-b]indol-1-yl)phenoxy)butoxy)ethoxy)-2,2-difluoroacetamido)-3,3-dimethylbutanoyl)-4-hydroxy-N—((S)-1-(4-(4-methylthiazol-5-yl)phenyl)ethyl)pyrrolidine-2-carboxamide]", "values": [{"measurement": "ER degradation ≥ 90% at 0.3 μM", "value": "•"}, {"measurement": "DC50", "value": 2, "unit": "nM"}]}, {"smiles": "Cc1ncsc1-c1ccc(CNC(=O)[C@@H]2C[C@@H](O)CN2C(=O)[C@@H](NC(=O)COCCOCCOCCOCCOc2cc(F)c([C@@H]3c4[nH]c5ccccc5c4C[C@@H](C)N3CC(C)(C)F)c(F)c2)C(C)(C)C)cc1", "note": "[Example 37, (2S,4R)-1-((S)-2-(tert-Butyl)-17-(3,5-difluoro-4-((1R,3R)-2-(2-fluoro-2-methylpropyl)-3-methyl-2,3,4,9-tetrahydro-1H-pyrido[3,4-b]indol-1-yl)phenoxy)-4-oxo-6,9,12,15-tetraoxa-3-azaheptadecanoyl)-4-hydroxy-N-(4-(4-methylthiazol-5-yl)benzyl)pyrrolidine-2-carboxamide]", "values": [{"measurement": "ER degradation ≥ 90% at 0.3 μM", "value": "••"}, {"measurement": "DC50", "value": 3, "unit": "nM"}]}, {"smiles": "Cc1ncsc1-c1ccc(CNC(=O)[C@@H]2C[C@@H](O)CN2C(=O)[C@@H](NC(=O)COCCOc2ccc(COc3cc(F)c([C@@H]4c5[nH]c6ccccc6c5C[C@@H](C)N4CC(C)(C)F)c(F)c3)cc2)C(C)(C)C)cc1", "note": "[Example 5, (2S,4R)-1-((S)-2-(2-(2-(4-((3,5-Difluoro-4-((1R,3R)-2-(2-fluoro-2-methylpropyl)-3-methyl-2,3,4,9-tetrahydro-1H-pyrido[3,4-b]indol-1-yl)phenoxy)methyl)phenoxy)ethoxy)acetamido)-3,3-dimethylbutanoyl)-4-hydroxy-N-(4-(4-methylthiazol-5-yl)benzyl)pyrrolidine-2-carboxamide]", "values": [{"measurement": "ER degradation ≥ 90% at 0.3 μM", "value": "•"}, {"measurement": "DC50", "value": 2.6, "unit": "nM"}]}, {"smiles": "Cc1ncsc1-c1ccc([C@H](C)NC(=O)[C@@H]2C[C@@H](O)CN2C(=O)[C@@H](NC(=O)COCCOCCCCCOc2cc(F)c([C@@H]3c4[nH]c5ccccc5c4C[C@@H](C)N3CC(F)(F)F)c(F)c2)C(C)(C)C)cc1", "note": "[Example 140, (2S,4R)-1-((S)-2-(2-(2-((5-(3,5-Difluoro-4-((1R,3R)-3-methyl-2-(2,2,2-trifluoroethyl)-2,3,4,9-tetrahydro-1H-pyrido[3,4-b]indol-1-yl)phenoxy)pentyl)oxy)ethoxy)acetamido)-3,3-dimethylbutanoyl)-4-hydroxy-N—((S)-1-(4-(4-methylthiazol-5-yl)phenyl)ethyl)pyrrolidine-2-carboxamide]", "values": [{"measurement": "ER degradation ≥ 90% at 0.3 μM", "value": "••"}, {"measurement": "DC50", "value": 0.6, "unit": "nM"}]}, {"smiles": "Cc1ncsc1-c1ccc(CNC(=O)[C@@H]2C[C@@H](O)CN2C(=O)[C@@H](NC(=O)C(F)(F)OCCOCCCCOc2cc(F)c([C@@H]3c4[nH]c5ccccc5c4C[C@@H](C)N3CC(C)(C)F)c(F)c2)C(C)(C)C)cc1", "note": "[Example 121, (2S,4R)-1-((S)-2-(2-(2-(4-(3,5-Difluoro-4-((1R,3R)-2-(2-fluoro-2-methylpropyl)-3-methyl-2,3,4,9-tetrahydro-1H-pyrido[3,4-b]indol-1-yl)phenoxy)butoxy)ethoxy)-2,2-difluoroacetamido)-3,3-dimethylbutanoyl)-4-hydroxy-N-(4-(4-methylthiazol-5-yl)benzyl)pyrrolidine-2-carboxamide]", "values": [{"measurement": "ER degradation ≥ 90% at 0.3 μM", "value": "•"}, {"measurement": "DC50", "value": 2.6, "unit": "nM"}]}, {"smiles": "Cc1ncsc1-c1ccc([C@H](C)NC(=O)[C@@H]2C[C@@H](O)CN2C(=O)[C@@H](NC(=O)CCOCCCCCCCOc2cc(F)c([C@@H]3c4[nH]c5ccccc5c4C[C@@H](C)N3CC(C)(C)F)c(F)c2)C(C)(C)C)cc1", "note": "[Example 114, (2S,4R)-1-((S)-2-(3-((7-(3,5-difluoro-4-((1R,3R)-2-(2-fluoro-2-methylpropyl)-3-methyl-2,3,4,9-tetrahydro-1H-pyrido[3,4-b]indol-1-yl)phenoxy)heptyl)oxy)propanamido)-3,3-dimethylbutanoyl)-4-hydroxy-N—((S)-1-(4-(4-methylthiazol-5-yl)phenyl)ethyl)pyrrolidine-2-carboxamide]", "values": [{"measurement": "ER degradation ≥ 90% at 0.3 μM", "value": "••"}, {"measurement": "DC50", "value": 3.6, "unit": "nM"}]}, {"smiles": "Cc1ncsc1-c1ccc(CNC(=O)[C@@H]2C[C@@H](O)CN2C(=O)[C@@H](NC(=O)CCCOc2cccc(COc3cc(F)c([C@@H]4c5[nH]c6ccccc6c5C[C@@H](C)N4CC(C)(C)F)c(F)c3)n2)C(C)(C)C)cc1", "note": "[Example 162, (2S,4R)-1-((S)-2-(4-((6-((3,5-Difluoro-4-((1R,3R)-2-(2-fluoro-2-methylpropyl)-3-methyl-2,3,4,9-tetrahydro-1H-pyrido[3,4-b]indol-1-yl)phenoxy)methyl)pyridin-2-yl)oxy)butanamido)-3,3-dimethylbutanoyl)-4-hydroxy-N-(4-(4-methylthiazol-5-yl)benzyl)pyrrolidine-2-carboxamide]", "values": [{"measurement": "ER degradation ≥ 90% at 0.3 μM", "value": "•"}, {"measurement": "DC50", "value": 1.8, "unit": "nM"}]}, {"smiles": "Cc1ncsc1-c1ccc(CNC(=O)[C@@H]2C[C@@H](O)CN2C(=O)[C@@H](NC(=O)COCCCCCCCCOc2cc(F)c([C@@H]3c4[nH]c5ccccc5c4C[C@@H](C)N3CC(C)(C)F)c(F)c2)C(C)(C)C)cc1", "note": "[Example 12, (2S,4R)-1-((S)-2-(2-((8-(3,5-Difluoro-4-((1R,3R)-2-(2-fluoro-2-methylpropyl)-3-methyl-2,3,4,9-tetrahydro-1H-pyrido[3,4-b]indol-1-yl)phenoxy)octyl)oxy)acetamido)-3,3-dimethylbutanoyl)-4-hydroxy-N-(4-(4-methylthiazol-5-yl)benzyl)pyrrolidine-2-carboxamide]", "values": [{"measurement": "ER degradation ≥ 90% at 0.3 μM", "value": "••"}, {"measurement": "DC50", "value": 6.6, "unit": "nM"}]}, {"smiles": "Cc1ncsc1-c1ccc([C@H](C)NC(=O)[C@@H]2C[C@@H](O)CN2C(=O)[C@@H](NC(=O)COCCOCCCCCOc2cc(F)c([C@@H]3c4[nH]c5ccccc5c4C[C@@H](C)N3CC(C)(C)F)c(F)c2)C(C)(C)C)cc1", "note": "[Example 156, (2S,4R)-1-((S)-2-(2-(2-((5-(3,5-Difluoro-4-((1R,3R)-2-(2-fluoro-2-methylpropyl)-3-methyl-2,3,4,9-tetrahydro-1H-pyrido[3,4-b]indol-1-yl)phenoxy)pentyl)oxy)ethoxy)acetamido)-3,3-dimethylbutanoyl)-4-hydroxy-N—((S)-1-(4-(4-methylthiazol-5-yl)phenyl)ethyl)pyrrolidine-2-carboxamide]", "values": [{"measurement": "ER degradation ≥ 90% at 0.3 μM", "value": "••"}, {"measurement": "DC50", "value": 1.5, "unit": "nM"}]}]}
